Assay results as given in patent US8912189B2, “Pyridopyrazine derivatives and their use” (Aeterna Zentaris GmbH, priority 2011, dated 2014).

| melting point [°C] | Structure (SMILES) |
| --- | --- |
| 251 | CCNC(=O)Nc1ccc2ncc(-c3cnn(CCCc4ccccc4)c3)nc2n1 [Compound 9, 1-Ethyl-3-{3-[1-(3-phenyl-propyl)-1H-pyrazol-4-yl]-pyrido[2,3-b]pyrazin-6-yl}-urea] |
| 217 to 220 | CCNC(=O)Nc1ccc2ncc(-c3cnn(Cc4ccc(C)cc4)c3)nc2n1 [Compound 15, 1-Ethyl-3-{3-[1-(4-methyl-benzyl)-1H-pyrazol-4-yl]-pyrido[2,3-b]pyrazin-6-yl}-urea] |
| 240 | CCNC(=O)Nc1ccc2ncc(-c3ccoc3)nc2n1 [Compound 432, 1-Ethyl-3-(3-furan-3-yl-pyrido[2,3-b]pyrazin-6-yl)-urea] |
| 249 | CCNC(=S)Nc1ccc2ncc(-c3cnn(Cc4ccc(Cl)cc4)c3)nc2n1 [Compound 50, 1-{3-[1-(4-Chloro-benzyl)-1H-pyrazol-4-yl]-pyrido[2,3-b]pyrazin-6-yl}-3-ethyl-thiourea] |
| 218 | CCNC(=O)Nc1ccc2ncc(-c3cnn(Cc4cccc(S(C)(=O)=O)c4)c3)nc2n1 [Compound 64, 1-Ethyl-3-{3-[1-(3-methanesulfonyl-benzyl)-1H-pyrazol-4-yl]-pyrido[2,3-b]pyrazin-6-yl}-urea] |
| 230 | CCNC(=S)Nc1ccc2ncc(-c3cnn(Cc4cc(OC)cc(OC)c4)c3)nc2n1 [Compound 39, 1-{3-[1-(3,5-Dimethoxy-benzyl)-1H-pyrazol-4-yl]-pyrido[2,3-b]pyrazin-6-yl}-3-ethyl-thiourea] |
| 257 to 259 | CCNC(=S)Nc1ccc2ncc(-c3cnn(Cc4cc(C)cc(F)c4)c3)nc2n1 [Compound 25, 1-Ethyl-3-{3-[1-(3-fluoro-5-methyl-benzyl)-1H-pyrazol-4-yl]-pyrido[2,3-b]pyrazin-6-yl}-thiourea] |
| 206 to 208 | CCNC(=S)Nc1ccc2ncc(-c3cnn(CCCc4ccccc4)c3)nc2n1 [Compound 44, 1-Ethyl-3-{3-[1-(3-phenyl-propyl)-1H-pyrazol-4-yl]-pyrido[2,3-b]pyrazin-6-yl}-thiourea] |
| 247 | CCNC(=O)Nc1ccc2ncc(-c3cnn(CCC(N)=O)c3)nc2n1 [Compound 404, 3-{4-[6-(3-Ethyl-ureido)-pyrido[2,3-b]pyrazin-3-yl]-pyrazol-1-yl}-propionamide] |
| 235 to 238 | CCNC(=S)Nc1ccc2ncc(-c3cnn(Cc4ccc(F)c(Cl)c4)c3)nc2n1 [Compound 38, 1-{3-[1-(3-Chloro-4-fluoro-benzyl)-1H-pyrazol-4-yl]-pyrido[2,3-b]pyrazin-6-yl}-3-ethyl-thiourea] |
| 244 | CCNC(=S)Nc1ccc2ncc(-c3cnn(Cc4ccc5c(c4)OCO5)c3)nc2n1 [Compound 5, 1-[3-(1-Benzo[1,3]dioxol-5-ylmethyl-1H-pyrazol-4-yl)-pyrido[2,3-b]pyrazin-6-yl]-3-ethyl-thiourea] |
| 232 | CCNC(=S)Nc1ccc2ncc(-c3cnn(Cc4cc(OC)c(OC)c(OC)c4)c3)nc2n1 [Compound 46, 1-Ethyl-3-{3-[1-(3,4,5-trimethoxy-benzyl)-1H-pyrazol-4-yl]-pyrido[2,3-b]pyrazin-6-yl}-thiourea] |
| 238 | CCNC(=S)Nc1ccc2ncc(-c3cnn(Cc4cccnc4)c3)nc2n1 [Compound 24, 1-Ethyl-3-[3-(1-pyridin-3-ylmethyl-1H-pyrazol-4-yl)-pyrido[2,3-b]pyrazin-6-yl]-thiourea] |
| 237 | CCNC(=S)Nc1ccc2ncc(-c3cnn(Cc4ccc(OC)cc4)c3)nc2n1 [Compound 23, 1-Ethyl-3-{3-[1-(4-methoxy-benzyl)-1H-pyrazol-4-yl]-pyrido[2,3-b]pyrazin-6-yl}-thiourea] |
| 242 | CCNC(=O)Nc1ccc2ncc(-c3cnn(Cc4cccc(O)c4)c3)nc2n1 [Compound 4, 1-Ethyl-3-{3-[1-(3-hydroxy-benzyl)-1H-pyrazol-4-yl]-pyrido[2,3-b]pyrazin-6-yl}-urea] |
| 208 to 215 | CCNC(=O)Nc1ccc2ncc(-c3cnn(Cc4ccc(C#N)cc4)c3)nc2n1 [Compound 10, 1-{3-[1-(4-Cyano-benzyl)-1H-pyrazol-4-yl]-pyrido[2,3-b]pyrazin-6-yl}-3-ethyl-urea] |
| 222 | CCNC(=O)Nc1ccc2ncc(-c3ccc(CO)s3)nc2n1 [Compound 396, 1-Ethyl-3-[3-(5-hydroxymethyl-thiophen-2-yl)-pyrido[2,3-b]pyrazin-6-yl]-urea] |
| 188 | COCNC(=S)Nc1ccc2ncc(-c3cnn(Cc4ccc(OC)c(OC)c4)c3)nc2n1 [Compound 35, 1-{3-[1-(3,4-Dimethoxy-benzyl)-1H-pyrazol-4-yl]-pyrido[2,3-b]pyrazin-6-yl}-3-methoxymethyl-thiourea] |
| 219 | COCCNC(=S)Nc1ccc2ncc(-c3cnn(Cc4ccccc4)c3)nc2n1 [Compound 31, 1-[3-(1-Benzyl-1H-pyrazol-4-yl)-pyrido[2,3-b]pyrazin-6-yl]-3-(2-methoxy-ethyl)-thiourea] |
| 217 | COc1cccc(Cn2cc(-c3cnc4ccc(NC(=S)NCC(F)(F)F)nc4n3)cn2)c1 [Compound 47, 1-{3-[1-(3-Methoxy-benzyl)-1H-pyrazol-4-yl]-pyrido[2,3-b]pyrazin-6-yl}-3-(2,2,2-trifluoro-ethyl)-thiourea] |

| melting point [°C] | Structure (SMILES) |
| --- | --- |
| 213 | CCNC(=S)Nc1ccc2ncc(-c3cnn(Cc4ccc(OC)c(OC)c4OC)c3)nc2n1 [Compound 43, 1-Ethyl-3-{3-[1-(2,3,4-trimethoxy-benzyl)-1H-pyrazol-4-yl]-pyrido[2,3-b]pyrazin-6-yl}-thiourea] |
| 201 | CCNC(=O)Nc1ccc2ncc(-c3cnn(Cc4cccc(OCCOC)c4)c3)nc2n1 [Compound 66, 1-Ethyl-3-(3-{1-[3-(2-methoxy-ethoxy)-benzyl]-1H-pyrazol-4-yl}-pyrido[2,3-b]pyrazin-6-yl)-urea] |
| 252 to 255 | CCNC(=S)Nc1ccc2ncc(-c3cnn(Cc4ccccc4C)c3)nc2n1 [Compound 52, 1-Ethyl-3-{3-[1-(2-methyl-benzyl)-1H-pyrazol-4-yl]-pyrido[2,3-b]pyrazin-6-yl}-thiourea] |
| 231 | CCNC(=O)Nc1ccc2ncc(-c3cnn(Cc4ccc(OC(F)(F)F)cc4)c3)nc2n1 [Compound 6, 1-Ethyl-3-{3-[1-(4-trifluoromethoxy-benzyl)-1H-pyrazol-4-yl]-pyrido[2,3-b]pyrazin-6-yl}-urea] |
| 198 | CCNC(=O)Nc1ccc2ncc(-c3cnn(Cc4cccc(OC(F)F)c4)c3)nc2n1 [Compound 3, 1-{3-[1-(3-Difluoromethoxy-benzyl)-1H-pyrazol-4-yl]-pyrido[2,3-b]pyrazin-6-yl}-3-ethyl-urea] |
| 198 | COCCNC(=S)Nc1ccc2ncc(-c3cnn(Cc4ccc(OC)c(OC)c4)c3)nc2n1 [Compound 7, 1-{3-[1-(3,4-Dimethoxy-benzyl)-1H-pyrazol-4-yl]-pyrido[2,3-b]pyrazin-6-yl}-3-(2-methoxy-ethyl)-thiourea] |
| 203 to 205 | CCNC(=S)Nc1ccc2ncc(-c3cnn(Cc4cccc(OCc5ccccc5)c4)c3)nc2n1 [Compound 21, 1-{3-[1-(3-Benzyloxy-benzyl)-1H-pyrazol-4-yl]-pyrido[2,3-b]pyrazin-6-yl}-3-ethyl-thiourea] |
| 222 | CCNC(=S)Nc1ccc2ncc(-c3cnn(Cc4cccc(OCC)c4)c3)nc2n1 [Compound 49, 1-{3-[1-(3-Ethoxy-benzyl)-1H-pyrazol-4-yl]-pyrido[2,3-b]pyrazin-6-yl}-3-ethyl-thiourea] |
| 242 | CCNC(=O)Nc1ccc2ncc(-c3ccc(C)o3)nc2n1 [Compound 416, 1-Ethyl-3-[3-(5-methyl-furan-2-yl)-pyrido[2,3-b]pyrazin-6-yl]-urea] |
| 218 to 222 | CCNC(=S)Nc1ccc2ncc(-c3cnn(Cc4cccc(OC)c4OC)c3)nc2n1 [Compound 26, 1-{3-[1-(2,3-Dimethoxy-benzyl)-1H-pyrazol-4-yl]-pyrido[2,3-b]pyrazin-6-yl}-3-ethyl-thiourea] |
| 239 | CCNC(=S)Nc1ccc2ncc(-c3cnn(Cc4cccc(O)c4)c3)nc2n1 [Compound 36, 1-Ethyl-3-{3-[1-(3-hydroxy-benzyl)-1H-pyrazol-4-yl]-pyrido[2,3-b]pyrazin-6-yl}-thiourea] |
| 242 to 245 | CCNC(=S)Nc1ccc2ncc(-c3cnn(Cc4cccc(C)c4F)c3)nc2n1 [Compound 48, 1-Ethyl-3-{3-[1-(2-fluoro-3-methyl-benzyl)-1H-pyrazol-4-yl]-pyrido[2,3-b]pyrazin-6-yl}-thiourea] |
| 235 | CCNC(=O)Nc1ccc2ncc(-c3cnn(CCNC(=O)OC(C)(C)C)c3)nc2n1 [Compound 406, (2-{4-[6-(3-Ethyl-ureido)-pyrido[2,3-b]pyrazin-3-yl]-pyrazol-1-yl}ethyl)-carbamic acid tert-butyl ester] |
| 250 | CCNC(=O)Nc1ccc2ncc(-c3cnn(Cc4ccc(OC)c(O)c4)c3)nc2n1 [Compound 56, 1-Ethyl-3-{3-[1-(3-hydroxy-4-methoxy-benzyl)-1H-pyrazol-4-yl]-pyrido[2,3-b]pyrazin-6-yl}-urea] |
| 239 | CCNC(=O)Nc1ccc2ncc(-c3cnn(Cc4ccc(OC(F)F)cc4)c3)nc2n1 [Compound 11, 1-{3-[1-(4-Difluoromethoxy-benzyl)-1H-pyrazol-4-yl]-pyrido[2,3-b]pyrazin-6-yl}-3-ethyl-urea] |
| 240 to 244 | CCNC(=O)Nc1ccc2ncc(-c3cnn(Cc4ccc(Cl)cc4)c3)nc2n1 [Compound 18, 1-{3-[1-(4-Chloro-benzyl)-1H-pyrazol-4-yl]-pyrido[2,3-b]pyrazin-6-yl}-3-ethyl-urea] |
| 225 | CCNC(=S)Nc1ccc2ncc(-c3cnn(Cc4cc(OC)ccc4OC)c3)nc2n1 [Compound 19, 1-{3-[1-(2,5-Dimethoxy-benzyl)-1H-pyrazol-4-yl]-pyrido[2,3-b]pyrazin-6-yl}-3-ethyl-thiourea] |
| 241 | CCNC(=S)Nc1ccc2ncc(-c3cnn(Cc4ccc(C)cc4)c3)nc2n1 [Compound 20, 1-Ethyl-3-{3-[1-(4-methyl-benzyl)-1H-pyrazol-4-yl]-pyrido[2,3-b]pyrazin-6-yl}-thiourea] |
| 230 | CCNC(=S)Nc1ccc2ncc(-c3cnn(Cc4ccc(OC)c(O)c4)c3)nc2n1 [Compound 57, 1-Ethyl-3-{3-[1-(3-hydroxy-4-methoxy-benzyl)-1H-pyrazol-4-yl]-pyrido[2,3-b]pyrazin-6-yl}-thiourea] |
